From article PMC9923724, “Half sandwich-type osmium, ruthenium, iridium and rhodium complexes with bidentate glycosyl heterocyclic ligands induce cytostasis in platinum-resistant ovarian cancer cells and bacteriostasis in Gram-positive multiresistant bacteria” (Frontiers in Chemistry, 2023)
Where two headings read alike, the source gives them in different places.

How the values were obtained:
[1] = test system: A2780 ovarian cancer cells; assay: MTT reduction assay (rapid toxicity, 4 h) on A2780 cells; assay type: cell-based; conditions: 4 h treatment
Procedure: (§1) First, we assessed a set of osmium complexes (similar to Ia [[Kacsir et al., 2022]) in Figure 1] and their sugar-derived ligands, in which the benzoyl protective groups on the carbohydrate moiety were replaced by aliphatic acyl groups of different chain length (straight chain C3-C7–CO). Osmium was selected as a central ion, since osmium complexes had the best biological activity in our previous studies ([Balázs et al., 2022]; [Kacsir et al., 2022]). These compounds were tested on A2780 ovarian cancer cells for toxicity and cytostasis. The therapy of ovarian cancer is centered around platinum compounds ([Brown et al., 2019]; [Sipos et al., 2021]), therefore, it was logical to use a cellular model of ovarian cancer for the initial testing of the compounds. Toxicity was assessed using the MTT assay that measures the activity of mitochondrial complex I. We chose 4 h long treatment as in an MTT assay this time point is suitable to detect rapid, direct toxicity. Cytostasis was assessed after 48 h of treatment using the SRB assay that assesses protein content that corresponds to cell count. The characteristics of the compounds are detailed in Table 2.
(§2) 3 × 10^3 A2780 cells, were plated to 96 well plates. Cells were treated with the compounds in the concentrations indicated for either 4 h for an MTT assay or for 48 h for an SRB assay. Data is represented as average ± SD, from three biological replicates; individual assays were performed in duplicates. Values were normalized for vehicle treated cells, absorbance for vehicle treated cells equals to 1. […] Except for the Os-6 complex, Two-way ANOVA test was performed and all values were compared with each other (Tukey’s post hoc test). […] Non-linear regression was performed on the data.
(§3) 3 × 10^3 A2780 cells, 2 × 10^3 ID8 cells and 4 × 10^3 primary fibroblasts were plated to 96 well plates. Cells were treated with the compounds in the concentrations indicated for either 4 h for an MTT assay or for 48 h for an SRB assay. Data is represented as average ± SD, from three biological replicates; individual assays were performed in duplicates. Values were normalized for vehicle treated cells, absorbance for vehicle treated cells equals to 1. Statistical significance was assessed using two-way ANOVA test comparing the free ligand and each complex as a complex-ligand pair. Before the test normality was assessed using the D’Agostino-Pearson test. The ID8 SRB Ir-7+L-7 dataset had lognormal distribution. […] All other datasets had normal distribution. For better visibility the p values are presented in an excel sheet at https://figshare.com/s/2c942a812caea8869a67. Non-linear regression was performed on the A2780 SRB and the ID8 SRB datasets.
(§4) MTT reduction assay measures the activity of mitochondrial complex I and can be used to detect toxicity ([Virág et al., 1998]; [Henslee et al., 2016]). The assay was performed similar to ([Bakondi et al., 2003]). Briefly, cells were plated in 96 well plates the day before the assay. Cells were treated with the compounds for 4 h, then MTT was added in 0.5 mg/ml final concentration and cells were incubated at 37°C in a cell incubator. Culture media was removed and the reduced MTT dye was dissolved in dimethyl-sulfoxide (DMSO) and plates were measured in a plate photometer (Thermo Scientific Multiscan GO spectrophotometer, Waltham, MA, United States) at 540 nm. On each plate wells were designed to contain untreated/vehicle-treated cells. In calculations the readings for these wells was considered as 1 and all readings were expressed relative to these values.

[2] = test system: A2780 ovarian cancer cells; assay: SRB assay (cytostasis, 48 h) on A2780 cells; assay type: cell-based; conditions: 48 h treatment
Procedure: as §1, §2, §3
(§5) The assay was performed similar to ([Kovács et al., 2019]). Cells were seeded in 96 well plates the day before the assay. Cells were treated with the compounds for 48 h. Cells were fixed with 10% trichloroacetic acid (TCA). Fixed cells were washed in distilled water 3 times followed by staining with SRB (0.4 m/V% dissolved in 1% acetic acid) for 10 min. Stained cells were washed in 1% acetic acid 5 times; acetic acid was removed and cells were left to dry. Protein-bound SRB was released by adding 100 µl 10 mM Tris base. Plates were measured in a plate photometer (Thermo Scientific Multiscan GO spectrophotometer, Waltham, MA, United States) at 540 nm. On each plate wells were designed to contain vehicle-treated cells. In calculations the readings for these wells was considered as 1 and all readings were expressed relative to these values.
Statistical analysis was performed using 8.0.1 version of Graphpad Prism. Values were tested for normal distribution using the D’Agostino and Pearson normality test. When necessary, values were log normalized or were normalized using the Box-Cox normalization method ([Box and Cox, 1964]) as indicated in the figure captions. […]

[3] = Determination of the distribution coefficients (logD); assay type: physicochemical; conditions: distribution coefficient
[4] = test system: Enterococcus faecalis (ATCC29212); assay: Broth microdilution MIC, Enterococcus faecalis reference strain; assay type: cell-based; conditions: for MIC, Reference E. faecalis: Enterococcus faecalis ATCC29212, 24 h
Procedure: (§6) The MIC values of the complexes were determined against the reference strains of S. aureus (ATCC29213) and E. faecalis. (ATCC29212) and against clinical VRE and MRSA isolates by microdilution assays (repeated at least twice in duplicates) as described in Materials and Methods. The numbers indicate how many isolates were susceptible to the compound out of those tested; i.e., 1/6 stands for 1 isolate was susceptible out of 6 tested. […] Cells were harvested and lysed. Cellular proteins was separated on a 10% SDS-PAGE gel and were blotted. Blots were probed with 4HNE antibody (top blot), the lower blot was stained with amido black. Arrows point at band of interest. Experiments were repeated three times and a representative blot is shown. On the blots brightness and contrast were adjusted. […] Each was matched to a substance and strain by its position over the x-axis categories. / Ir-7: ND and 0/3 (left plot) and ND and 0/6 (right plot) were matched to E. faecalis/VRE and S. aureus/MRSA by position only.
(§7) We used the reference strains of Staphylococcus aureus (ATCC29213), and Enterococcus faecalis (ATCC29212) that were purchased from ATCC (Manassas, VA, United States).
(§8) Microdilution experiments were performed according to the standards of EUCAST ([EUCAST, 2021]). […] The inoculated plates were incubated for 24 h at 37°C then were assessed visually. […] All experiments were performed at least twice in duplicates.

[5] = test system: vancomycin-resistant Enterococcus (VRE) clinical isolates; assay: Broth microdilution MIC, clinical VRE isolates; assay type: cell-based, E. faecium; conditions: for VRE isolates susceptible out of those tested: 3 isolates tested, susceptible = MIC up to 40 µM; for MIC, VRE 25 051: clinical isolate 25 051, nephrostoma; for MIC, VRE 25 051 / MIC, VRE 25 498 / MIC, VRE 27 085: 2018; for MIC, VRE 25 498: clinical isolate 25 498, rectal swab; for MIC, VRE 27 085: clinical isolate 27 085, wound
Procedure: as §6
(§9) We used a set of clinical isloates of S. aureus and E. faecium that were collected at the Medical Center of the University of Debrecen (Hungary) between 01. 01. 2018.—31. 12. 2020. The clinical isolates were identified using a Microflex MALDI-TOF mass spectrometer (Bruker, Billerica, MA, United States). Antibiotic susceptibility of the isolates was tested following the European Committee on Antimicrobial Susceptibility Testing ([EUCAST, 2021]) guidelines valid at the time of collection.
as §8

[6] = test system: Staphylococcus aureus (ATCC29213); assay: Broth microdilution MIC, Staphylococcus aureus reference strain; assay type: cell-based; conditions: for MIC, Reference S. aureus: Staphylococcus aureus ATCC29213, 24 h; for MIC (μM) (S. aureus), Figure 11: reference strain ATCC29213
Procedure: as §6, §7, §8

[7] = test system: methicillin-resistant Staphylococcus aureus (MRSA) clinical isolates; assay: Broth microdilution MIC, clinical MRSA isolates; assay type: cell-based; conditions: for MRSA isolates susceptible out of those tested: 6 isolates tested, susceptible = MIC up to 40 µM; for MIC, MRSA 20 426: clinical isolate 20 426, blood, 2020; for MIC, MRSA 24 035: clinical isolate 24 035, wound; for MIC, MRSA 24 035 / MIC, MRSA 24 268 / MIC, MRSA 24 272 / MIC, MRSA 24 328 / MIC, MRSA 24 408: 2018; for MIC, MRSA 24 268: clinical isolate 24 268, throat; for MIC, MRSA 24 272: clinical isolate 24 272, throat; for MIC, MRSA 24 328: clinical isolate 24 328, throat; for MIC, MRSA 24 408: clinical isolate 24 408, bronchial
Procedure: as §6, §9, §8

[8] = test system: cisplatin resistant A2780 cells; assay: SRB assay (48 h) on cisplatin-resistant A2780 cells; assay type: cell-based
Procedure: 6 × 10^3 cisplatin-resistant A2780 cells were plated to 96 well plates. Cells were treated with the compounds in the concentrations indicated for either 4 h for an MTT assay or for 48 h for an SRB assay. Data is represented as average ± SD, from three biological replicates; individual assays were performed in duplicates. Values were normalized for vehicle treated cells, absorbance for vehicle treated cells equals to 1. Each compound was assessed individually. Normality was assessed using the Shapiro-Wilk test. […] Statistical significance was assessed using One-way ANOVA test comparing all points to the smallest concentration. For better visibility the p values are presented in an excel sheet at https://figshare.com/s/2c942a812caea8869a67. Non-linear regression was performed on the results of the SRB assay datasets.
Cisplatin resistant cells underwent selection (1 µM cisplatin) once a week for 3 days before plating for any assay.
as §5
Statistical analysis was performed using 8.0.1 version of Graphpad Prism. Values were tested for normal distribution using the D’Agostino and Pearson normality test. When necessary, values were log normalized or were normalized using the Box-Cox normalization method ([Box and Cox, 1964]) as indicated in the figure captions.

[9] = test system: A2780 ovarian cancer cells; conditions: ref Kacsir et al., cited from earlier work
[10] = test system: primary dermal fibroblasts; assay: MTT reduction assay (4 h) on primary fibroblasts; assay type: cell-based; conditions: primary human dermal fibroblasts
Procedure: as §3
Human primary dermal fibroblasts were cultured in low glucose DMEM (1 g/L glucose) medium supplemented with 20% fetal calf serum, 2 mM glutamine, 1% penicillin-streptomycin.
as §4

[11] = test system: multiresistant bacteria (Staphylococcus aureus, Enterococcus species); design: method as in Balázs et al., 2022; conditions: ref Balázs et al., 2022; cited from earlier work
[12] = cisplatin resistant A2780 cells, SRB, 48 h

SMILES	A2780 MTT Max. (maximal inhibition) [1] [%]	A2780 SRB Max. (maximal inhibition) [2] [%]	IC50 [2] [µM]	LogD [3]	MIC, Reference E. faecalis [4]	VRE isolates susceptible out of those tested [5]	MIC, VRE 25 051 [5]	MIC, VRE 25 498 [5]	MIC, VRE 27 085 [5]	MIC, Reference S. aureus [6]	MIC (μM) (S. aureus), Figure 11 [6]	MRSA isolates susceptible out of those tested [7]	MIC, MRSA 20 426 [7]	MIC, MRSA 24 035 [7]	MIC, MRSA 24 268 [7]	MIC, MRSA 24 272 [7]	MIC, MRSA 24 328 [7]	MIC, MRSA 24 408 [7]	other results
CCCCCCC(=O)OCC1OC(n2cc(-c3ccccn3)nn2)C(OC(=O)CCCCCC)C(OC(=O)CCCCCC)C1OC(=O)CCCCCC.Cc1ccc(C(C)C)cc1.F[P-](F)(F)(F)(F)F.[Cl][Os+] (mixture of isomers) [Os-5]	83.4	>90	15.9	2.7	40< µM	0/3	40< µM	40< µM	40< µM	40< µM	ND (ND—not detected, MIC>40 µM)	0/6	40< µM	40< µM	40< µM	40< µM	40< µM	40< µM	MIC (μM) (E. faecalis), Figure 11 ([4]; reference strain ATCC29212, printed in the picture): ND (ND—not detected, MIC>40 µM); MIC against clinical VRE isolates (as a group) ([5]; 3 clinical VRE isolates): > 40 µM; MIC against clinical MRSA isolates (as a group) ([7]; 6 clinical MRSA isolates): > 40 µM
CCCCCC(=O)OCC1OC(n2cc(-c3ccccn3)nn2)C(OC(=O)CCCCC)C(OC(=O)CCCCC)C1OC(=O)CCCCC.Cc1ccc(C(C)C)cc1.F[P-](F)(F)(F)(F)F.[Cl][Os+] (mixture of isomers) [Os-4]	84.4	>90	3.87	2.7	40 µM	3/3	40 µM	40 µM	40 µM	40< µM	ND (ND—not detected, MIC>40 µM)	1/6	40< µM	40< µM	40< µM	40< µM	40< µM	40 µM	–
N.N.[Cl][Pt][Cl] [Cisplatin, cisplatin, reference compound]	–	–	–	–	–	–	–	–	–	–	–	–	–	–	–	–	–	–	fold change of IC50, cisplatin resistant vs cisplatin sensitive A2780 ([8]; SRB assays, resistant / sensitive A2780): 13.6 fold; IC50 [8, 12]: 16.5 µM; cisplatin resistant A2780 SRB Max. (maximal inhibition) [8, 12]: >90%; A2780 SRB Max. (maximal inhibition), cisplatin ([9]; A2780 cells, SRB, 2021): >90%; IC50 ([9]; cisplatin-sensitive A2780 cells, SRB, 2021, read-out: A2780 SRB IC50, cisplatin): 1.21 µM
Cc1c(C)c(C)[c-](C)c1C.F[P-](F)(F)(F)(F)F.O=C(OCC1OC(n2cc(-c3ccc4ccccc4n3)nn2)C(OC(=O)c2ccccc2)C(OC(=O)c2ccccc2)C1OC(=O)c1ccccc1)c1ccccc1.[Cl][Rh+2] (mixture of isomers) [Rh-7]	18.3	47.9	–	–	–	–	–	–	–	–	–	–	–	–	–	–	–	–	Fibroblast MTT Max. (maximal inhibition) [10]: 15.09%
Cc1ccc(C(C)C)cc1.F[P-](F)(F)(F)(F)F.O=C(OCC1OC(n2cc(-c3ccccn3)nn2)C(OC(=O)c2ccccc2)C(OC(=O)c2ccccc2)C1OC(=O)c1ccccc1)c1ccccc1.[Cl][Os+] (mixture of isomers) [Ia]	–	–	–	–	–	–	–	–	–	–	–	–	–	–	–	–	–	–	IC50 ([9]; A2780 cells, 2022, read-out: IC50 against A2780 ovarian cancer): 0.73 µM; MIC on multiresistant bacteria [11]: 0.3 to 5.0 µM
